Patent publication US20120201935A1, “SWEETNESS ENHANCER, SWEETENER COMPOSITIONS, METHODS OF MAKING THE SAME AND CONSUMABLES CONTAINING THE SAME” (NUTRINOVA NUTRITION SPECIALTIES & FOOD INGREDIENTS GMBH, priority 2011, published 2012)
“Also recorded” adds a separate entry of the source.

Columns and labels:
[1] = tested on: HEKα15#17 cells (control cell line without sweet receptor); assay: Same calcium assay on the control cell line without sweet receptor; assay type: cell-based; details: FIG. 1 grey bars
Description: (§1) For measurement of human T1R2/T1R3 taste receptor dependent activity a control cell line without sweet receptor based on HEK 293 and a cell line expressing the sweet receptor hT1R2/hT1R3 based on HEK 293, respectively, are seeded into assay plates and labelled with the calcium sensitive fluorescence dye Fluo4-AM in a culture medium. The potential modulators, e.g. the test compound, are added to the control cell line and to the cell line expressing the sweet receptor hT1R2/hT1R3, respectively.
(§2) A stable cell line based on HEK293 was termed HEKα15#17 served as control for functional Gα-protein and a stable cell line HEKGα15#17R2R3b#8 C6 served as cell line expressing the sweet receptor hT1R2/hT1R3 based on HEKGα15#17.
The cells were cultured in DMEM/HG and 10% FCS Gold, 4 mM L-Glutamin, 1.3 mg/ml Geneticin (HEKGα15#17) or the same medium additionally containing 6 μg/ml Blasticidin (HEKGα15#17R2R3b#8 C6). The medium for the assay was DMEM/HG (high glucose, 4.5 g/l glucose, Life Technologies) and 10% FCS Gold, 4 mM L-Glutamin (HEKGα15#17) or DMEM/LG (low glucose, 1 g/l glucose; Life Technologies) and 10% FCS Gold (HEKGα15#17R2R3b#8C6), respectively. 1.3 Evaluation of the sweet receptor modulating activity of rosmarinic acid
In order to evaluate the sweet receptor modulating activity of rosmarinic acid, rosmarinic acid was added to the cultures in a concentration of 25 μM in a volume of 50 μl. Controls were KH-buffer (Krebs HEPES-buffer: 118 mM NaCl, 4.7 mM KCl, 1.2 mM MgSO4, 1.2 mM KH2PO4, 4.2 mM NaHCO3, 1.3 mM CaCl2, 10 mM Hepes, pH 7.4) either without or with sweetness enhancer.
Further controls for function of G-protein and receptor were isoproterenol Sigma Aldrich), ionomycin (1 μM, Calbiochem) and ATP (1 μM, Applichem).
For measurement of human T1R2/T1R3 taste receptor dependent activity, on day 1 of the test procedure the HEKα15#17 cells (control cell line without sweet receptor) and the HEKGα15#17R2R3b#8 C6 cells (cell line expressing the sweet receptor hT1R2/hT1R3), respectively, were transferred to low-glucose medium.
On day 2 the cells were seeded into assay plates at a density of 25.000 cells/well. Assay plates for fluorescence measurement (black clear bottom 96-cavity plates, Greiner Bio-One) were coated with poly-D-lysine. For direct comparison both cell lines (control cell line without sweet receptor and cell line expressing the sweet receptor hT1R2/hT1R3) were seeded into different cavities of the same assay plate. The plate was placed into the incubator for 48 hours at 37° C., 5% CO2, 100% relative humidity.
On day 4 the calcium assay was performed. For this assay, the cells were marked with Fluo4-AM in medium and KH-buffer. To each cavity 100 μl KH-Puffer/250 μM sulfinpyrazone/4 μM Fluo4-AM were added gently to 100 μl medium (final concentration of Fluo4-AM=2 μM, stock solution of Fluo4-AM 1 mM in DMSO, excitation at 485 nm, emission at 520 nm, Fisher Scientific, 58239 Schwerte, Germany).
The plate was placed into the incubator for 1 hour. In the mean time the test substances (“ligands”) were prepared in a separate plate (5 times concentrated, 150 μl/cavity, and then automatically 50 μl/cavity were transferred into the screening cell plate by pipetting robot (FLEX-station, Molecular Devices, Sunnyvale, Calif.).
The culture medium was carefully removed and 200 μl KH-buffer/250 μM sulfinpyrazone per cavity was added slowly. Cells were left in the FLEX-station for 20 minutes for adaptation, followed by measurement at 37° C.
In the bar diagram the grey bars (control—without hT1R2/hT1R3) indicate the measured Fluo4-AM fluorescence increase of the respective test compound added to the control cell line, the black bars (assay—with hT1R2/hT1R3) indicate the measured Fluo4-AM fluorescence increase of the respective test compound added to the cell line expressing the sweet receptor hT1R2/hT1R3.

[2] = Taste and spit assay with a panel of trained sensory evaluators; assay type: in vivo, human; details: 5 panelists
Source text: The taste of a sample of a compound, e.g. rosmarinic acid, with regard to sweetness and/or sweetness enhancing properties, in other embodiments, may be assessed in vivo by using a panel of trained sensory evaluators experienced in the sweet taste estimation procedure, e.g. in the taste and spit assay as described e.g. in Example 2.
In these cases, panelists are asked to take a sample of the liquid to be assessed (test substance, e.g. rosmarinic acid) into the mouth and after some time allowed for taste perception to spit the sample out completely. Subsequently, the panelists are asked to rinse their mouth well with water or black tea to reduce any potential carry over effects. The tasting of a sample can be repeated if required.
In a first descriptive test (qualitative assessment for sweetness) the panelists are asked to taste the quality of single samples (maximum 3 subsequent samples). The individuals of the taste panel are asked to answer the following questions with regard to the quality of taste: 1) does the sample taste sweet?. 2) is there another taste detectable (bitter, sour, salty, umami)?. 3) is there an off- or aftertaste?. 4) is there anything else remarkable about the perception of the sample?
In the next step (assessment of sweetness enhancing, e.g. fructose enhancing, features) the panelists are asked to answer questions in a pairwise comparison test to determine the enhancement of sweet taste of the test substance with fructose relative to fructose only. Again the panelists are given samples. Two samples are prepared for direct comparison regarding sweetness. One sample contains fructose in a solvent and the other sample additionally contains the test substance. Designation of the samples with A and B is randomized and is decoded after the taste procedure. The questions to be answered are: 1) does one sample taste sweeter than the other?, 2) if so, which one?, 3) are there any other differences in the taste between the two samples? The result of the taste and spit assay is a qualitative evaluation of the differences between the two samples.
The taste of a sample of rosmarinic acid with regard to sweetness and fructose enhancing features was assessed by using a panel of trained sensory evaluators experienced in the sweet taste estimation procedure. 5 individuals were asked to taste the quality of single samples of 10 ml volume.
Panelists were asked to take a sample of the liquid to be assessed (20 μM test substance rosmarinic acid in 0.5% ethanol) into the mouth and after some time allowed for taste perception to spit the sample out completely. Subsequently, the panelists were asked to rinse their mouth well with water or black tea to reduce any potential carry over effects. The tasting of a sample could be repeated if required. […]

[3] = biological target: T1, human taste receptor T1R2/T1R3 (Homo sapiens, UniProt Q7RTX0+Q8TE23); assay: Recombinant human taste receptor T1R2/T1R3 dependent cell based calcium assay (Fluo4-AM), cell line expressing the sweet receptor
T1 construct: expressed in transfected cells; host or cells: HEK293 stably expressing mouse G-alpha-15 (HEKGα15#17R2R3b#8 C6)
T1 sequence (Q8TE23 20-839): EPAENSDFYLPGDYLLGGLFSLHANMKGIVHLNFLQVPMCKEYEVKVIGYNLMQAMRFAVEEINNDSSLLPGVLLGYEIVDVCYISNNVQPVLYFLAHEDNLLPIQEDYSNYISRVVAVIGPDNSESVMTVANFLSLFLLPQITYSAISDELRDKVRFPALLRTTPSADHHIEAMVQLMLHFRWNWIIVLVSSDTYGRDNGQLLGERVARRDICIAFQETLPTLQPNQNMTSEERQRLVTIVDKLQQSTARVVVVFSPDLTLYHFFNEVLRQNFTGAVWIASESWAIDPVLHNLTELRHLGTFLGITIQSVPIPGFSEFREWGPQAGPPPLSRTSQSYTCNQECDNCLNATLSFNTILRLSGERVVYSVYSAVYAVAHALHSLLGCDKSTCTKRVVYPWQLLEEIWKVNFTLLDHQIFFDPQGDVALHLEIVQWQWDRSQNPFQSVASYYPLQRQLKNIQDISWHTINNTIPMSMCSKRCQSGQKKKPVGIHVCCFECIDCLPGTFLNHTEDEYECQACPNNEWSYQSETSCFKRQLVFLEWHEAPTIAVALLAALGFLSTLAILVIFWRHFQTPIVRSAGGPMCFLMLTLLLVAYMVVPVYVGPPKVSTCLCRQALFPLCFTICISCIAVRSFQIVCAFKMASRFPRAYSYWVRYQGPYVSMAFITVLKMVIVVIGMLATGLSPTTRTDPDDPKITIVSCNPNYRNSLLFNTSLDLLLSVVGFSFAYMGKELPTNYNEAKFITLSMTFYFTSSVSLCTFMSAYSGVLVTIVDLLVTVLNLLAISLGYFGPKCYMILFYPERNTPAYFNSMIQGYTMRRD
T1 sequence (Q7RTX0 21-852): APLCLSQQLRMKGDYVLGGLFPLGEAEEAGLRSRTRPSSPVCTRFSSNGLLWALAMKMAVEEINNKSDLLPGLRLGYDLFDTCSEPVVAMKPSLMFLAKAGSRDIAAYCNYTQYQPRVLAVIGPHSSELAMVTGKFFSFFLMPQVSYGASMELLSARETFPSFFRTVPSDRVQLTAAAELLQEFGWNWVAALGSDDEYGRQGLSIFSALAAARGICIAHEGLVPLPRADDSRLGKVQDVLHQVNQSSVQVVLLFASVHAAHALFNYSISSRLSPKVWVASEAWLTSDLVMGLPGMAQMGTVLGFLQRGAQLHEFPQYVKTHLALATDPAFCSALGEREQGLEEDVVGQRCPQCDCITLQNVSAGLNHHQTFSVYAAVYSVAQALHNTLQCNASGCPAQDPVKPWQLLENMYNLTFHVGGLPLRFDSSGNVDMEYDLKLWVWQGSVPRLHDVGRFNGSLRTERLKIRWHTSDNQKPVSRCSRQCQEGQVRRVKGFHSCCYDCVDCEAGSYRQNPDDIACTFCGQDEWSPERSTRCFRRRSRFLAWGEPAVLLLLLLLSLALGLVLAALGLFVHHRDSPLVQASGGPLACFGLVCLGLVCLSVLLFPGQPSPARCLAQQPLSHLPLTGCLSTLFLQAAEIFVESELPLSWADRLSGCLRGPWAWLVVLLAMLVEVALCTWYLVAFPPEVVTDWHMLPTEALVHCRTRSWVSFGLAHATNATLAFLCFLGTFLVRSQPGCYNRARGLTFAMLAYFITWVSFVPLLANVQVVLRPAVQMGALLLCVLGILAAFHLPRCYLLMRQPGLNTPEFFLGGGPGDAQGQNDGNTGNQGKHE
Description: as §1, §2
The cells were cultured in DMEM/HG and 10% FCS Gold, 4 mM L-Glutamin, 1.3 mg/ml Geneticin (HEKGα15#17) or the same medium additionally containing 6 μg/ml Blasticidin (HEKGα15#17R2R3b#8 C6). The medium for the assay was DMEM/HG (high glucose, 4.5 g/l glucose, Life Technologies) and 10% FCS Gold, 4 mM L-Glutamin (HEKGα15#17) or DMEM/LG (low glucose, 1 g/l glucose; Life Technologies) and 10% FCS Gold (HEKGα15#17R2R3b#8C6), respectively. […]
On day 2 the cells were seeded into assay plates at a density of 25.000 cells/well. Assay plates for fluorescence measurement (black clear bottom 96-cavity plates, Greiner Bio-One) were coated with poly-D-lysine. […]

[4] = test compound without added enhancer/fructose, sodium cyclamate 30 mM, ATP 1 μM, ionomycin 1 μM, fructose 20 mM, rosmarinic acid 25 μM
[5] = 20 μM with 4% fructose in 0.5% ethanol

Nc1ncnc2c1ncn2[C@@H]1O[C@H](COP(=O)(O)OP(=O)(O)OP(=O)(O)O)[C@@H](O)[C@H]1O [ATP]
Fluo4-AM fluorescence increase (activation) of the control cell line [1, 4]: activate

O=C(CO)[C@@H](O)[C@H](O)[C@H](O)CO [fructose]
Fluo4-AM fluorescence increase (activation) of the control cell line [1, 4]: does neither activate

C[C@H](CCC(=O)O)C[C@H](C)C[C@H](C)C(=O)/C=C(\O)[C@H](C)C[C@H](C)C/C=C/[C@@H](C)[C@@H](O)[C@@H](C)[C@@H](O)C[C@@H]1CC[C@@](C)([C@H]2CC[C@@](C)([C@@H](C)O)O2)O1 [ionomycin]
Fluo4-AM fluorescence increase (activation) of the control cell line [1, 4]: activate

CC(C)NCC(O)c1ccc(O)c(O)c1 (stereo not shown) [isoproterenol]
Fluo4-AM fluorescence increase (activation) of the control cell line [1, 4]: activate

O=C(/C=C/c1ccc(O)c(O)c1)O[C@H](Cc1ccc(O)c(O)c1)C(=O)O [rosmarinic acid]
Off-taste or other taste (Phase I qualitative assessment) ([2]; 20 μM in 0.5% ethanol, 10 ml): No off-taste or any other taste than sweetness was detected
Taste quality of the single sample (Phase I qualitative assessment) ([2]; 20 μM in 0.5% ethanol, 10 ml, ambient temperature): no characteristic intrinsic taste
Panelists identifying the sample with 4% fructose plus test substance as sweeter than 4% fructose only (Phase II pairwise comparison) [2, 5]: four
Panelists tasting no difference between the two samples (Phase II pairwise comparison) [2, 5]: One
Fluo4-AM fluorescence increase (activation) of the control cell line ([1]; rosmarinic acid 25 μM in the presence of fructose (20 mM)): does not activate
Fluo4-AM fluorescence increase (activation) of the control cell line [1, 4]: does not activate
Time response in the cell assay ([3]; measured over ca. 1.5 minutes (86 seconds), FIG. 2): selective stimulation of receptor carrying cells
Fructose enhancing activity in the cell based in vitro assay ([3]; rosmarinic acid in the presence of fructose): acting as a fructose enhancer; also recorded: enhances the activity of fructose; also recorded: acts as a fructose enhancer

O=S(=O)([O-])NC1CCCCC1.[Na+] [sodium cyclamate]
Fluo4-AM fluorescence increase (activation) of the control cell line [1, 4]: does not activate
